Measured values taken from US9187497B2, “Substituted pyrido[3,2-e]pyrrolo[1,2-a]pyrazines as inhibitors of poly(ADP-ribose)polymerase (PARP)” (Takeda Phamaceutical Company Limited, priority 2009, dated 2015).

Columns and labels:
[1] = molecular target: T1, catalytic domain of Human PARP (Homo sapiens, UniProt P09874); experiment: Biacore surface plasmon resonance affinity assay (dissociation constant KD); assay type: binding; conditions: pKD=-log(KD), KD in molar concentration; Biacore T100, 25° C.
T1 construct: The catalytic domain of Human PARP was cloned and prepared; made in house
T1 sequence (P09874 788-1014 limits assumed): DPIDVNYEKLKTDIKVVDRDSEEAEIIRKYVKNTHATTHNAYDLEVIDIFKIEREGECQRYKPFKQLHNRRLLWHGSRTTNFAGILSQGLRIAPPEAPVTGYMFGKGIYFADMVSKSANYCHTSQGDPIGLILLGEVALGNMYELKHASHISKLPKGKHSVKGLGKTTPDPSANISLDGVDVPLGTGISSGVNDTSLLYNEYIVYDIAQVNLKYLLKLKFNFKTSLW
Experimental: Dissociation Constant (KD) from Surface Plasmon Resonance
The catalytic domain of Human PARP was cloned and prepared as described in Kinoshita, T.; Nakanishi, I.; Warizaya, M.; Iwashita, A.; Kido, Y.; Hattori, K. and Fujii, T. 2006 FEBS Letters 556, 43-46. Purified enzyme was stored at −80° C. in 25 mM Tris(hydroxymethyl)aminomethane (Tris) pH 7.4, 150 mM NaCl, 2 mM dithiothreitol (DTT) at a concentration of 6 mg/ml.
Biacore affinity assays for test compounds were conducted on a Biacore T100 (GE Healthcare) as follows. A Series S Sensor Chip CM5 (part number BR-1006-68, GE Healthcare) was activated for amide coupling with an Amine Coupling Kit (part number BR-1000-50, GE Healthcare) as described by the manufacturer. The mobile phase buffer consisted of Biacore buffer HBS-P (part number BR-1003-68, GE Healthcare) supplemented with 1% v/v dimethylsulfoxide (DMSO), 0.5 mM Tris(2-carboxyethyl)phosphine hydrochloride (TCEP), and 5 mM MgCl2. Enzyme samples (2 μl/6 mg/ml) stored at −80° C. were diluted to 0.080 mg/ml with 10 mM 4-morpholineethanesulfonic acid (MES) pH 6.5 and then mounted on the activated Biacore CM5 chip at a flow rate of 10 μl/min for 240 seconds. When successfully mounted, a signal of approximately 8,000 reflective units was observed. Test compounds were diluted 9 times 2-fold serially in mobile phase buffer (listed above) at 1% v/v DMSO final to generate a concentration gradient bracketing their anticipated KDs. Biacore mounted PARP was given a 1 minute exposure (association phase) to various concentrations of test compounds to observe a steady state equilibrium or an on rate. The exposure was followed with a dissociation phase of 5 minutes. The association and dissociation phases were at a flow rate of 50 μl/min and a temperature of 25° C.
Parameters Rmax (response at saturation) and KD (binding constant) were calculated through a nonlinear least squares fitting of the equation to the data by use of the Biacore T100 analysis software.
Parameter optimization was through a nonlinear least squares analysis of the association phase Response=Rmax*(1−exp(−(kon[cmpd]+koff)*t)) and dissociation phase Response=[…] by use of the Biacore T100 analysis software. The binding constant KD was calculated from the definition KD=koff/kon

PARP = molecular target: T2, PARP (Homo sapiens, UniProt P09874); experiment: PARP ELISA colorimetric assay of inhibition of PARP catalytic activity (IC50); assay type: biochemical; conditions: pIC50=-log(IC50), IC50 in molar concentration; ELISA-based PARP kit, 10 minutes of catalysis
T2 construct: purchased Trevigen 4684-096-01 (enzyme); kit 4684-096-K HT
T2 sequence (P09874 whole entry): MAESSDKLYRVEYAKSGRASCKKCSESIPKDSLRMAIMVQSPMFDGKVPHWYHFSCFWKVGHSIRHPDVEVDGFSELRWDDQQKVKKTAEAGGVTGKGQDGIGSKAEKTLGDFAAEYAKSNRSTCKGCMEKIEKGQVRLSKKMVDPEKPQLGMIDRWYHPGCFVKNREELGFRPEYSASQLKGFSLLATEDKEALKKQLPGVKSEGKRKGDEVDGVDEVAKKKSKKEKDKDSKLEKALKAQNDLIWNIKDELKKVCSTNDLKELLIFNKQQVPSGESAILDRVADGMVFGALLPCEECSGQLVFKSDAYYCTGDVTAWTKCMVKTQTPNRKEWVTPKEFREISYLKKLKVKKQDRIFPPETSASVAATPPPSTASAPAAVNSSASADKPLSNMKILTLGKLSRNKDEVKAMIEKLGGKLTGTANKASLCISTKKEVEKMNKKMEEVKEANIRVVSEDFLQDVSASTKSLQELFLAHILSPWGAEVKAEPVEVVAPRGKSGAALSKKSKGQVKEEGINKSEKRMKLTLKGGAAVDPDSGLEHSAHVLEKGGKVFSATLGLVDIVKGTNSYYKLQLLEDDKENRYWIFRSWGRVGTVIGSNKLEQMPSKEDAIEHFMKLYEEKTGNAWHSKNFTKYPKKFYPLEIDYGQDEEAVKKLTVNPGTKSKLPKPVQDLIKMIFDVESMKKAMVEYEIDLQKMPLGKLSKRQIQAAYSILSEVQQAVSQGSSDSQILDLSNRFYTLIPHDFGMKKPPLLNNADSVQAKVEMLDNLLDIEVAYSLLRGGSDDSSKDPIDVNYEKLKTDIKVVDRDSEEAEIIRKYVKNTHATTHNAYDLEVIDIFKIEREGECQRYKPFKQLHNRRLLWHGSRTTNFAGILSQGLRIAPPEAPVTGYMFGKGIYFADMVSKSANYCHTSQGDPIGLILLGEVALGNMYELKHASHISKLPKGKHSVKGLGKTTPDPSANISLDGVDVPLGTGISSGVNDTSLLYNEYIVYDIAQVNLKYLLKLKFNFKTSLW
Summary of the method: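 Human PARP was added as a 0.1 nM solution to histone-coated wells with compound for a 10-min ambient preincubation. The reaction was started with 100 μM NAD+ solution plus activated DNA and run 10 min. PAR formation was detected by anti-PAR ELISA, colorimetric. IC50 came from a 12-point, 3-fold gradient fitted by nonlinear least squares to a Hill equation.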

Jurkat cell line = experiment: PARP cellular chemopotentiation assay (MTS cell viability with and without TMZ); assay type: cell-based; conditions: ratio of EC50 for inhibition of cell viability without and with 100 μM TMZ; Jurkat cells, 96 hours of treatment
Summary of the method: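 Jurkat cells, 10,000/well, pre-cultured 24 h, then treated 96 h with serial compound dilutions (0.5% DMSO) with or without 100 μM TMZ. Viability by MTS conversion (OD490), normalized to DMSO controls; EC50 from curve fits, PF50 = EC50 without TMZ / EC50 with TMZ.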

Row | SMILES | Kd [1] [µM] | IC50 (PARP) [µM] | PF50 (Jurkat cell line)
1 | C[C@H]1C(=O)Nc2cc(CN3CCC(c4ccccc4)CC3)cnc2N1C [Compound 54, (S)-3,4-dimethyl-7-((4-phenylpiperidin-1-yl)methyl)-3,4-dihydropyrido[3,2-b]pyrazin-2(1H)-one] | ≥ 1 |  | 
2 | C[C@H]1C(=O)Nc2cc(CN3CCN(c4cccc(Cl)c4)CC3)cnc2N1C [Compound 58, (S)-7-((4-(3-chlorophenyl)piperazin-1-yl)methyl)-3,4-dimethyl-3,4-dihydropyrido[3,2-b]pyrazin-2(1H)-one] | ≥ 1 |  | 
3 | CC(C)N1c2ncc(CN3CC=C(c4ccc(Cl)cc4)CC3)cc2NC(=O)[C@@H]1C [Compound 60, (S)-7-((4-(4-chlorophenyl)-5,6-dihydropyridin-1(2H)-yl)methyl)-4-isopropyl-3-methyl-3,4-dihydropyrido[3,2-b]pyrazin-2(1H)-one] | ≥ 1 |  | 
4 | COc1cc(C#N)ccc1N1CCN(Cc2cnc3c(c2)NC(=O)[C@@H]2CCCCN32)CC1 [Compound 118, (S)-3-methoxy-4-(4-((6-oxo-6,6a,7,8,9,10-hexahydro-5H-dipyrido[1,2-a:3′,2′-e]pyrazin-3-yl)methyl)piperazin-1-yl)benzonitrile] |  | ≤ 0.0126 | >5000
5 | CC1CN(c2ccccn2)CCN1Cc1cnc2c(c1)NC(=O)[C@@H]1CCCN21 (stereo partly drawn) [Compound 120, (6aS)-3-((2-methyl-4-(pyridin-2-yl)piperazin-1-yl)methyl)-6a,7,8,9-tetrahydropyrido[3,2-e]pyrrolo[1,2-a]pyrazin-6(5H)-one] |  | ≥ 0.0501 | ≧0
6 | O=C1Nc2cc(CC3CCN(c4ccc(Cl)cc4)CC3)cnc2N2CCC[C@@H]12 [Compound 122, (S)-3-((1-(4-chlorophenyl)piperidin-4-yl)methyl)-6a,7,8,9-tetrahydropyrido[3,2-e]pyrrolo[1,2-a]pyrazin-6(5H)-one] |  | ≥ 0.0501 | ≧0
7 | N#Cc1ccc(N2CCN(Cc3cnc4c(c3)NC(=O)[C@@H]3CCCN43)CC2)cn1 [Compound 123, (S)-5-(4-((6-oxo-5,6,6a,7,8,9-hexahydropyrido[3,2-e]pyrrolo[1,2-a]pyrazin-3-yl)methyl)piperazin-1-yl)picolinonitrile] |  | 0.0158 to 0.0398 | >10
8 | CCNC(=O)c1cc(F)c(N2CCN(Cc3cnc4c(c3)NC(=O)[C@@H]3CCCN43)CC2)cc1F [Compound 124, (S)—N-ethyl-2,5-difluoro-4-(4-((6-oxo-5,6,6a,7,8,9-hexahydropyrido[3,2-e]pyrrolo[1,2-a]pyrazin-3-yl)methyl)piperazin-1-yl)benzamide] |  | ≥ 0.0501 | ≧0
9 | CCNC(=O)c1ccc(N2CCN(Cc3cnc4c(c3)NC(=O)[C@@H]3CCCN43)CC2)cc1F [Compound 125, (S)—N-ethyl-2-fluoro-4-(4-((6-oxo-5,6,6a,7,8,9-hexahydropyrido[3,2-e]pyrrolo[1,2-a]pyrazin-3-yl)methyl)piperazin-1-yl)benzamide] |  | ≥ 0.0501 | ≧0
10 | CCNC(=O)c1ccc(N2CCN(Cc3cnc4c(c3)NC(=O)[C@@H]3CCCN43)CC2)c(F)c1 [Compound 126, (S)—N-ethyl-3-fluoro-4-(4-((6-oxo-5,6,6a,7,8,9-hexahydropyrido[3,2-e]pyrrolo[1,2-a]pyrazin-3-yl)methyl)piperazin-1-yl)benzamide] |  | 0.0158 to 0.0398 | >5000
11 | CCNC(=O)c1ccc(N2CCN(Cc3cnc4c(c3)NC(=O)[C@@H]3CCCN43)CC2)c(Cl)c1 [Compound 127, (S)-3-chloro-N-ethyl-4-(4-((6-oxo-5,6,6a,7,8,9-hexahydropyrido[3,2-e]pyrrolo[1,2-a]pyrazin-3-yl)methyl)piperazin-1-yl)benzamide] |  | 0.0158 to 0.0398 | >500
12 | CNS(=O)(=O)c1ccc(N2CCN(Cc3cnc4c(c3)NC(=O)[C@@H]3CCCN43)CC2)cc1 [Compound 128, (S)—N-methyl-4-(4-((6-oxo-5,6,6a,7,8,9-hexahydropyrido[3,2-e]pyrrolo[1,2-a]pyrazin-3-yl)methyl)piperazin-1-yl)benzenesulfonamide] |  | ≥ 0.0501 | ≧0
13 | Cc1cc(C#N)ccc1N1CCN(Cc2cnc3c(c2)NC(=O)[C@@H]2CCCN32)CC1 [Compound 129, (S)-3-methyl-4-(4-((6-oxo-5,6,6a,7,8,9-hexahydropyrido[3,2-e]pyrrolo[1,2-a]pyrazin-3-yl)methyl)piperazin-1-yl)benzonitrile] |  | 0.0158 to 0.0398 | >500
14 | Cc1cc(F)ccc1N1CCN(Cc2cnc3c(c2)NC(=O)[C@@H]2CCCN32)CC1 [Compound 130, (S)-3-((4-(4-fluoro-2-methylphenyl)piperazin-1-yl)methyl)-6a,7,8,9-tetrahydropyrido[3,2-e]pyrrolo[1,2-a]pyrazin-6(5H)-one] |  | 0.0158 to 0.0398 | >2000
15 | CNC(=O)c1ccc(N2CCN(Cc3cnc4c(c3)NC(=O)[C@@H]3CCCN43)CC2)c(F)c1 [Compound 131, (S)-3-fluoro-N-methyl-4-(4-((6-oxo-5,6,6a,7,8,9-hexahydropyrido[3,2-e]pyrrolo[1,2-a]pyrazin-3-yl)methyl)piperazin-1-yl)benzamide] |  | ≤ 0.0126 | >500
16 | O=C(NC1CC1)c1ccc(N2CCN(Cc3cnc4c(c3)NC(=O)[C@@H]3CCCN43)CC2)c(F)c1 [Compound 132, (S)—N-cyclopropyl-3-fluoro-4-(4-((6-oxo-5,6,6a,7,8,9-hexahydropyrido[3,2-e]pyrrolo[1,2-a]pyrazin-3-yl)methyl)piperazin-1-yl)benzamide] |  | ≤ 0.0126 | >2000
17 | CC(C)NC(=O)c1ccc(N2CCN(Cc3cnc4c(c3)NC(=O)[C@@H]3CCCN43)CC2)c(F)c1 [Compound 133, (S)-3-fluoro-N-isopropyl-4-(4-((6-oxo-5,6,6a,7,8,9-hexahydropyrido[3,2-e]pyrrolo[1,2-a]pyrazin-3-yl)methyl)piperazin-1-yl)benzamide] |  | 0.0158 to 0.0398 | >2000
18 | O=C(NC1CC1)c1ccc(N2CCN(Cc3cnc4c(c3)NC(=O)[C@@H]3CCCN43)CC2)c(Cl)c1 [Compound 134, (S)-3-chloro-N-cyclopropyl-4-(4-((6-oxo-5,6,6a,7,8,9-hexahydropyrido[3,2-e]pyrrolo[1,2-a]pyrazin-3-yl)methyl)piperazin-1-yl)benzamide] |  | 0.0158 to 0.0398 | >5000
19 | CC(C)NC(=O)c1ccc(N2CCN(Cc3cnc4c(c3)NC(=O)[C@@H]3CCCN43)CC2)c(Cl)c1 [Compound 135, (S)-3-chloro-N-isopropyl-4-(4-((6-oxo-5,6,6a,7,8,9-hexahydropyrido[3,2-e]pyrrolo[1,2-a]pyrazin-3-yl)methyl)piperazin-1-yl)benzamide] |  | 0.0158 to 0.0398 | >5000
20 | CNC(=O)c1ccc(N2CCN(Cc3cnc4c(c3)NC(=O)[C@@H]3CCCN43)CC2)c(Cl)c1 [Compound 136, (S)-3-chloro-N-methyl-4-(4-((6-oxo-5,6,6a,7,8,9-hexahydropyrido[3,2-e]pyrrolo[1,2-a]pyrazin-3-yl)methyl)piperazin-1-yl)benzamide] |  | ≤ 0.0126 | >5000
21 | CCNC(=O)c1ccc(N2CCN(Cc3cnc4c(c3)NC(=O)[C@@H]3CCCN43)CC2)c(C)c1 [Compound 137, (S)—N-ethyl-3-methyl-4-(4-((6-oxo-5,6,6a,7,8,9-hexahydropyrido[3,2-e]pyrrolo[1,2-a]pyrazin-3-yl)methyl)piperazin-1-yl)benzamide] |  | ≤ 0.0126 | >5000
22 | CNC(=O)c1ccc(N2CCN(Cc3cnc4c(c3)NC(=O)[C@@H]3CCCN43)CC2)c(C)c1 [Compound 141, (S)—N,3-dimethyl-4-(4-((6-oxo-5,6,6a,7,8,9-hexahydropyrido[3,2-e]pyrrolo[1,2-a]pyrazin-3-yl)methyl)piperazin-1-yl)benzamide] |  | ≤ 0.0126 | >500
